Laboratory results: patent US20210322415A1 (priority 2016, published 2021)

Key:
[1] = system: OV2022 tumour (ovarian cancer) xenografts; test: OV2022 patient derived tumour xenograft efficacy study; type: in vivo; conditions: 3 mg/kg, 5 days on 2 days off vs daily, alone or with 100 mg/kg olaparib
[2] = system: tumors; conditions: reported in literature; cited from earlier work
[3] = system: SW620, Calu6 and A498 tumor xenografts; test: Tumor xenograft efficacy studies with intermittent dosing; type: in vivo, nude or scid mice; conditions: for anti-tumor effects: oral once daily
Text: Tumors were selected and randomized into groups when tumor volume reached approximately 0.2 cm^3. […] Groups of 10 animals were used, however in the final cycle cohorts of 5 animals were removed in between dosing group to support assessment of pharmacodynamic biomarkers in the tumor.

[4] = biological target: c-kit (Homo sapiens, UniProt P10721); test: Target cover in pre-clinical models: modelled mean free plasma concentration vs cellular IC50; type: in vivo; conditions: doses up to 2.4 mg/kg
c-kit, sequence (P10721 26-976): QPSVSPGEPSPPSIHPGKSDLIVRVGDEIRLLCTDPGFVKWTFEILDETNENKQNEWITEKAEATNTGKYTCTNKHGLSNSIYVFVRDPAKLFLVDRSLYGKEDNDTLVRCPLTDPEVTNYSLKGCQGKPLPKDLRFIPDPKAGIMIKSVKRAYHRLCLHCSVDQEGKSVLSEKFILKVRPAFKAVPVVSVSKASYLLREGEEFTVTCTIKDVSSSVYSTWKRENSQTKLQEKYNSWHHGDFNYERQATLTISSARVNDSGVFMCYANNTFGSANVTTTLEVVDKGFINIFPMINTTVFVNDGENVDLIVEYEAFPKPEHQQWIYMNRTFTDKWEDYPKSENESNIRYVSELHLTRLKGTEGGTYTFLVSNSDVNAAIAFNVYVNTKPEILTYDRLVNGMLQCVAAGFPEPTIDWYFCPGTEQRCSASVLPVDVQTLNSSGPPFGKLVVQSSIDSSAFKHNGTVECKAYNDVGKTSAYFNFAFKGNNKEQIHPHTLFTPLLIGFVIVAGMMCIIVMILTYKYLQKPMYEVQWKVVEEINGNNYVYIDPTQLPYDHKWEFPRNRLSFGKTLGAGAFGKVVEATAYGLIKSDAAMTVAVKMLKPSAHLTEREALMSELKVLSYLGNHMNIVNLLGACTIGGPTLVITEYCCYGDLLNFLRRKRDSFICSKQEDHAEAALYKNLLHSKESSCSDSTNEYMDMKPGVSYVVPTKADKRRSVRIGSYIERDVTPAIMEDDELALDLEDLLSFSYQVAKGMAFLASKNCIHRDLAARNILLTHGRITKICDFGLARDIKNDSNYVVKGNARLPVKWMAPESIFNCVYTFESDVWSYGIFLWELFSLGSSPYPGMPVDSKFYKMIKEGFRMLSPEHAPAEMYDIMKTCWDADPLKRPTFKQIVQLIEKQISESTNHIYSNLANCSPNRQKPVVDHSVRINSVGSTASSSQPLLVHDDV
Procedure: 4.8 mg/kg (FIGS. 1M-1P) following dosing zs regimens of once daily continuous (QDCont), once daily 5 days on 2 days off (QD5on2off), or once daily 4 days (QD4on3off). […] The reduction in PK is shown following the last dose of drug (at either 4 or 5 days dosing), and overlaid on each plot (horizontal lines) are the cellular IC50 values generated in vitro for inhibition of pVEGFR-1,-2, pKit, pPDGFRα and pPDGFRβ, as indicated. For the plots exemplifying VEGFR and Kit cover, R-P stands for receptor phosphorylation in a cell based assay; C-P stands for cell proliferation; for VEGFR plots, T-G stands for tubule growth in an endothelial-fibroblast co-culture assay. […] For the graphs depicting PDGFRα and β cover, inhibition of PDGFRα and PDGFRβ phosphorylation and PDGFBB or PDGFAA driven proliferation are shown together with the relevant cell lines.

## COc1cc2c(Oc3ccc4[nH]c(C)cc4c3F)ncnc2cc1OCCCN1CCCC1.O=C(O)/C=C\C(=O)O [cediranib, 4-[(4-fluoro-2-methyl-1H-indol-5-yl)oxy]-6-methoxy-7-[3-(pyrrolidin-1-yl)propoxy]quinazoline maleate]
[1]
  efficacy of intermittent schedule versus constant dose: equivalent efficacy
[2]
  tumor growth in a range of preclinical models: inhibit the growth of tumors in a dose-dependent manner
[3]; 1.5 mg/kg, 4/3 schedule, three 7-day cycles (FIG. 5)
  efficacy (mean tumor volume versus time): in 2 out of the three models intermittent dosing of cediranib at 1.5 mg/kg on a 4/3 schedule maintains efficacy
[3]; 1.5 mg/kg, 5/2 schedule, three 7-day cycles (FIG. 3)
  efficacy (mean tumor volume versus time): maintains efficacy
[3]; 3 mg/kg, 4/3 schedule, three 7-day cycles (FIG. 6)
  efficacy (mean tumor volume versus time): maintains efficacy
[3]; 3 mg/kg, 5/2 schedule, three 7-day cycles (FIG. 4)
  efficacy (mean tumor volume versus time): maintains efficacy
[3]; 4 days on 3 days off schedule
  anti-tumor effects: maintains anti-tumor effects albeit at not as effectively as the 5/2 schedule
[3]; 5 days on 2 days off schedule, monotherapy
  anti-tumor effects: maintains anti-tumor effects
[3]; preclinical in vivo data, 5 days on/2 days off vs daily
  anti-tumor activity, intermittent compared to daily schedule: no difference in anti-tumor activity
[4]
  target cover versus c-kit: achieving target cover
